Results as given in paper PMC10786919, “Design-rules for stapled peptides with in vivo activity and their application to Mdm2/X antagonists” (Nature Communications, 2024).
Values after ≈ are worked out from the molar mass of the structure shown. Like-named read-outs stand apart in the source and are kept apart here. Positions of bridges follow the written chain, without caps; N, C: chain ends. Non-standard residues stand in square brackets, D forms with d. Residues, ends and D or L forms follow the SMILES beside them. Trp(6-Cl) = N[C@@H](Cc1c[nH]c2cc(Cl)ccc12)C(=O)O; 2Nal = N[C@@H](Cc1ccc2ccccc2c1)C(=O)O; R8 = C=CCCCCCC[C@@](C)(N)C(=O)O; Cit = NC(=O)NCCC[C@H](N)C(=O)O; Cba = N[C@@H](CC1CCC1)C(=O)O; S5 = C=CCCC[C@](C)(N)C(=O)O; Nle = CCCC[C@H](N)C(=O)O; Dab = NCC[C@H](N)C(=O)O; Aib = CC(C)(N)C(=O)O; Ahx = NCCCCCC(=O)O

What was measured:
[1] = Lactate dehydrogenase (LDH) release assay; assay type: cell-based
Experimental: (§1) HCT116 cells were stably transfected with a p53 responsive β-lactamase reporter and expanded in McCoy’s 5 A Medium with 10% fetal bovine serum (FBS), Blasticidin, and Penicillin/Streptomycin and then transferred to 1.5 ml freezing vials and stored under liquid nitrogen in growth media containing 5% DMSO. […] The cells were then seeded into a 384-well plate at a density of 8000 cells per well. […] The final working concentration of DMSO was 0.5%. Lactate dehydrogenase release was detected using the CytoTox-ONE Homogenous Membrane Integrity Assay Kit (Promega), as per the manufacturer’s instructions. Measurements were carried out using the Tecan plate reader. […] Measurements were taken a minimum of three times (biological replicates) and values are reported as geometric means of the replicates.

HCT116 cells = assay: Lactate dehydrogenase (LDH) release assay; assay type: cell-based
Experimental: as §1

[2] = Solubility assay (kinetic solubility, PBS pH 7); assay type: physicochemical; conditions: pH 7, aqueous buffer, kinetic from dmso stock, pH 7, PBS; read-out: Solubility
Experimental: The standard reference solutions were prepared by diluting the 10 mM stock in 10:80:10 solution of acetonitrile:methanol:DMSO to 100 µM.
The solubility value is calculated by the following equation:
Solubility [µM] = (Peak area of sample/ Peak area of standard) (Standard concentration)

Structure (SMILES)	EC50 ([1]; LDH: Cytotoxicity assay EC50)	LDH: Cytotoxicity assay % Effect (HCT116 cells)	other results
CC(=O)N[C@@H](CCCCN=[N+]=[N-])C(=O)N[C@H](C(=O)N[C@@H](Cc1ccccc1)C(=O)N[C@]1(C)CCCCC#CC#CCCC[C@@](C)(C(=O)N[C@@H](CCC(=O)O)C(=O)N[C@@H](C)C(=O)N[C@@H](Cc2ccccc2)C(=O)N[C@@H](C)C(=O)N[C@@H](C)C(=O)N[C@@H](Cc2ccccc2)C(N)=O)NC(=O)[C@H](CC2CCC2)NC(=O)[C@H](CCC(N)=O)NC(=O)[C@H](C)NC(=O)[C@H](Cc2c[nH]c3ccccc23)NC(=O)[C@H](Cc2ccc(O)cc2)NC(=O)[C@H](CCC(=O)O)NC1=O)[C@@H](C)O [MP-444, Ac-K(N3)-TF(X)EYWAQ(Cba)(X)EAFAAF-NH2]			EC50 ([1]; 0% FBS 4Hr, read-out: LDH: Cytotoxicity assay EC50): > 50.7 µM; EC50 ([1]; 10% FBS 16Hr, read-out: LDH: Cytotoxicity assay EC50): > 50.7 µM; LDH: Cytotoxicity assay % Effect (HCT116 cells; 0% FBS 4Hr): 17.89%; LDH: Cytotoxicity assay % Effect (HCT116 cells; 10% FBS 16Hr): 4.968%; solubility kinetic [2]: 167 µM (≈ 365 µg/mL)
CC(=O)N[C@@H](CCCCN=[N+]=[N-])C(=O)NCCC(=O)N[C@@H](CC(C)C)C(=O)N[C@H](C(=O)N[C@@H](Cc1ccccc1)C(=O)N[C@]1(C)CCCCCCC=CCCC[C@@](C)(C(=O)N[C@@H](CO)C(=O)N[C@@H](C)C(=O)N[C@@H](C)C(N)=O)NC(=O)[C@H](CC2CCC2)NC(=O)[C@H](CCC(N)=O)NC(=O)[C@H](C)NC(=O)[C@H](Cc2c[nH]c3cc(Cl)ccc23)NC(=O)[C@H](Cc2ccc(CP(=O)(O)O)cc2)NC(=O)[C@H](CCC(=O)O)NC1=O)[C@@H](C)O [MP-891]			EC50 ([1]; 0% FBS 4Hr, read-out: LDH: Cytotoxicity assay: EC50): > 50.6 µM; LDH: Cytotoxicity assay: % Effect (HCT116 cells; 0% FBS 4Hr): 3.299%
CC(=O)N[C@@H](CCCCN=[N+]=[N-])C(=O)NCCC(=O)N[C@@H](CC(C)C)C(=O)N[C@H](C(=O)N[C@@H](Cc1ccccc1)C(=O)N[C@]1(C)CCCCCCC=CCCC[C@@](C)(C(=O)N[C@@H](CO)C(=O)N[C@@H](C)C(=O)N[C@@H](C)C(N)=O)NC(=O)[C@H](CC2CCC2)NC(=O)[C@H](CCC(N)=O)NC(=O)[C@H](C)N(C)C(=O)[C@H](Cc2c[nH]c3ccccc23)NC(=O)[C@H](Cc2ccc(O)cc2)NC(=O)[C@H](CCC(=O)O)NC1=O)[C@@H](C)O [MP-498]			EC50 ([1]; LDH: Cytotoxicity assay: EC50): > 50 µM; LDH: Cytotoxicity assay: % Effect (HCT116 cells): 7.026%
CC(=O)N[C@H](C(=O)N[C@@H](CO)C(=O)N[C@@H](Cc1ccccc1)C(=O)N[C@]1(C)CCCCCCC=CCCC[C@@](C)(C(=O)N[C@@H](CCC(=O)O)C(N)=O)NC(=O)[C@H](CC2CCC2)NC(=O)[C@H](CC(C)C)NC(=O)[C@H](C)NC(=O)[C@H](Cc2c[nH]c3cc(Cl)ccc23)NC(=O)[C@H](Cc2ccc(O)cc2)NC(=O)[C@H](CCC(=O)O)NC1=O)[C@@H](C)O [MP-043] (Ac-TSF[R8]EY[Trp(6-Cl)]AL[Cba][S5]E-NH2; staple 4-11)	> 50 µM	3.493%	
CC(=O)N[C@H](C(=O)N[C@@H](CO)C(=O)N[C@@H](Cc1ccccc1)C(=O)N[C@]1(C)CCCCCCC=CCCC[C@@](C)(C(=O)N[C@@H](CCC(=O)O)C(N)=O)NC(=O)[C@H](CC2CCC2)NC(=O)[C@H](CC(C)C)NC(=O)[C@H](C)NC(=O)[C@H](Cc2c[nH]c3ccccc23)NC(=O)[C@H](Cc2ccc(O)cc2)NC(=O)[C@H](CCC(=O)O)NC1=O)[C@@H](C)O [MP-140] (Ac-TSF[R8]EYWAL[Cba][S5]E-NH2; staple 4-11)	> 50 µM	11.41%	
CC(=O)N[C@H](C(=O)N[C@@H](CCCNC(N)=O)C(=O)N[C@H](C(=O)N[C@@H](CO)C(=O)N[C@@H](Cc1ccccc1)C(=O)N[C@]1(C)CCCCCCC=CCCC[C@@](C)(C(N)=O)NC(=O)[C@H](CC(C)C)NC(=O)[C@H](CC(C)C)NC(=O)[C@H](C)NC(=O)[C@H](Cc2c[nH]c3ccccc23)NC(=O)[C@H](Cc2ccc(O)cc2)NC(=O)[C@H](CCC(=O)O)NC1=O)[C@@H](C)O)C(C)C [MP-9667]	> 50 µM	5.511%	
CCCC[C@@H]1NC(=O)[C@H](CC(C)C)NC(=O)[C@H](C)NC(=O)[C@H](Cc2c[nH]c3ccccc23)NC(=O)[C@H](Cc2ccc(O)cc2)NC(=O)[C@H](CCC(=O)O)NC(=O)[C@](C)(NC(=O)[C@H](Cc2ccc3ccccc3c2)NC(=O)[C@H](CO)NC(=O)[C@@H](NC(C)=O)[C@@H](C)O)CCCCCCC=CCCC[C@@](C)(C(N)=O)NC1=O [MP-147] (Ac-TS[2Nal][R8]EYWAL[Nle][S5]-NH2; staple 4-11)	> 50 µM	20.59%	
CC(=O)N[C@@H](CCN)C(=O)N[C@@H](CCN)C(=O)NCCCCCC(=O)N[C@H](C(=O)N[C@@H](CO)C(=O)N[C@@H](Cc1ccccc1)C(=O)N[C@]1(C)CCCCCCC=CCCC[C@@](C)(C(=O)N[C@@H](CCC(=O)O)C(=O)N[C@@H](CC(N)=O)C(=O)N[C@@H](Cc2ccccc2)C(N)=O)NC(=O)[C@H](CC(C)C)NC(=O)[C@H](CC(C)C)NC(=O)[C@H](C)NC(=O)[C@H](Cc2c[nH]c3ccccc23)NC(=O)[C@H](Cc2ccc(O)cc2)NC(=O)[C@H](CCC(=O)O)NC1=O)[C@@H](C)O [MP-664] (Ac-[Dab][Dab][Ahx]TSF[R8]EYWALL[S5]ENF-NH2; staple 7-14)	> 50 µM	4.71%	
CC(=O)N[C@@H](CCCCN)C(=O)N[C@@H](CCCCN)C(=O)N[C@H](C(=O)N[C@@H](CO)C(=O)N[C@@H](Cc1ccccc1)C(=O)N[C@]1(C)CCCCCCC=CCCC[C@@](C)(C(=O)N[C@@H](CCC(=O)O)C(N)=O)NC(=O)[C@H](CC2CCC2)NC(=O)[C@H](CC(C)C)NC(=O)[C@H](C)NC(=O)[C@H](Cc2c[nH]c3ccccc23)NC(=O)[C@H](Cc2ccc(O)cc2)NC(=O)[C@H](CCC(=O)O)NC1=O)[C@@H](C)O [MP-157] (Ac-KKTSF[R8]EYWAL[Cba][S5]E-NH2; staple 6-13)	> 50 µM	5.957%	
CC(=O)N[C@H](C(=O)N[C@@H](CO)C(=O)N[C@@H](Cc1ccccc1)C(=O)NC(C)(C)C(=O)N[C@@H](CCC(=O)O)C(=O)N[C@@H](Cc1ccc(O)cc1)C(=O)N[C@@H](Cc1c[nH]c2ccccc12)C(=O)N[C@@H](C)C(=O)N[C@@H](CC(C)C)C(=O)N[C@@H](CC1CCC1)C(=O)NC(C)(C)C(N)=O)[C@@H](C)O [MP-1154] (Ac-TSF[Aib]EYWAL[Cba][Aib]-NH2)	> 50 µM	17.78%	
CC(=O)N[C@@H](CCCCN=[N+]=[N-])C(=O)NCCC(=O)N[C@@H](CC(C)C)C(=O)N[C@H](C(=O)N[C@@H](Cc1ccccc1)C(=O)N[C@]1(C)CCCCCCC=CCCC[C@@](C)(C(=O)N[C@@H](CO)C(=O)N[C@@H](C)C(=O)N[C@@H](C)C(N)=O)NC(=O)[C@H](CC2CCC2)NC(=O)[C@H](CCC(N)=O)N(C)C(=O)[C@H](C)NC(=O)[C@H](Cc2c[nH]c3ccccc23)NC(=O)[C@H](Cc2ccc(O)cc2)NC(=O)[C@H](CCC(=O)O)NC1=O)[C@@H](C)O [MP-499]			EC50 ([1]; LDH: Cytotoxicity assay: EC50): > 50.6 µM; LDH: Cytotoxicity assay: % Effect (HCT116 cells): 13.75%
CC(=O)N[C@H](C(=O)N[C@@H](CCCNC(N)=O)C(=O)N[C@@H](CCCCN)C(=O)NCCCCCC(=O)N[C@H](C(=O)N[C@@H](CO)C(=O)N[C@@H](Cc1ccccc1)C(=O)N[C@]1(C)CCCCCCC=CCCC[C@@](C)(C(=O)N[C@@H](CCC(=O)O)C(=O)N[C@@H](CC(N)=O)C(=O)N[C@@H](Cc2ccccc2)C(N)=O)NC(=O)[C@H](CC(C)C)NC(=O)[C@H](CC(C)C)NC(=O)[C@H](C)NC(=O)[C@H](Cc2c[nH]c3ccccc23)NC(=O)[C@H](Cc2ccc(O)cc2)NC(=O)[C@H](CCC(=O)O)NC1=O)[C@@H](C)O)C(C)C [MP-668] (Ac-V[Cit]K[Ahx]TSF[R8]EYWALL[S5]ENF-NH2; staple 8-15)	> 50 µM	4.429%	
CC(=O)N[C@@H](CCCCN)C(=O)N[C@@H](CCCCN)C(=O)N[C@H](C(=O)N[C@@H](CO)C(=O)N[C@@H](Cc1ccccc1)C(=O)N[C@]1(C)CCCCCCC=CCCC[C@@](C)(C(N)=O)NC(=O)[C@H](CC2CCC2)NC(=O)[C@H](CC(C)C)NC(=O)[C@H](C)NC(=O)[C@H](Cc2c[nH]c3ccccc23)NC(=O)[C@H](Cc2ccc(O)cc2)NC(=O)[C@H](CCC(=O)O)NC1=O)[C@@H](C)O [MP-087] (Ac-KKTSF[R8]EYWAL[Cba][S5]-NH2; staple 6-13)	35.2 µM	23.77%	
CC(=O)N[C@@H](CCCNC(=N)N)C(=O)NCCCCCC(=O)N[C@@H](CCCCN=[N+]=[N-])C(=O)N[C@@H](CC(C)C)C(=O)N[C@H](C(=O)N[C@@H](Cc1ccccc1)C(=O)N[C@]1(C)CCCCCCC=CCCC[C@@](C)(C(=O)N[C@@H](CO)C(=O)N[C@@H](C)C(=O)N[C@@H](C)C(N)=O)NC(=O)[C@H](CC2CCC2)NC(=O)[C@H](CCC(N)=O)NC(=O)[C@H](C)NC(=O)[C@H](Cc2c[nH]c3ccccc23)NC(=O)[C@H](Cc2ccc(O)cc2)NC(=O)[C@H](CCC(=O)O)NC1=O)[C@@H](C)O [MP-005]			EC50 ([1]; LDH: Cytotoxicity assay: EC50): > 50 µM; LDH: Cytotoxicity assay: % Effect (HCT116 cells): 39.54%
CC(=O)N[C@H](C(=O)N[C@@H](CCCNC(N)=O)C(=O)N[C@@H](CC(C)C)C(=O)N[C@H](C(=O)N[C@@H](Cc1ccccc1)C(=O)N[C@]1(C)CCCCCCC=CCCC[C@@](C)(C(=O)N[C@@H](CO)C(=O)N[C@@H](C)C(=O)N[C@@H](C)C(N)=O)NC(=O)[C@H](CC2CCC2)NC(=O)[C@H](CCC(N)=O)NC(=O)[C@H](C)NC(=O)[C@H](Cc2c[nH]c3ccccc23)NC(=O)[C@H](Cc2ccc(O)cc2)NC(=O)[C@H](CCC(=O)O)NC1=O)[C@@H](C)O)C(C)C [MP-669]	> 50 µM	9.923%	
